Measurements from patent publication US20010005721A1, “Heel crack healing composition and method therefor” (priority 1998, published 2001).

What was measured:
[1] = system: cracks upon the heel and foot; test: Trial Study Series A: active ingredient studies 1-4

## [O]=[Zn] [Zinc oxide]
[1]; zinc oxide concentration about 3%
  healing of cracks upon the heel and foot: optimal concentration
[1]; zinc oxide concentration above about 5%
  healing properties of the composition: does not appear to affect the healing properties
[1]; zinc oxide concentration less than about 1%
  healing: some slight decrease in the healing

## O=C(O)c1ccccc1O [Salicylic acid]
[1]; salicylic acid concentration about 4%
  effectiveness: most effective concentration
[1]; salicylic acid concentration about 5%
  effectiveness: also an effective concentration
[1]; salicylic acid concentration about 8-9%
  effectiveness / excessive exfoliation: not as effective due to excessive exfoliation
[1]; salicylic acid concentration less than about 4% in the composition
  effectiveness (exfoliation, healing time): generally less effective, promoting less exfoliation and having a lengthened healing time
Heel cracks; about 10% by weight salicylic acid
  defoliation versus therapeutic benefit: effects of rapid defoliation begin to exceed the therapeutic benefits
Heel cracks; salicylic acid over about 6% or 7% by weight
  effect of raising the salicylic acid component: negative results characterized not only by a rapid defoliation of the affected areas

## C[C@]12CCC(=O)C=C1CC[C@@H]1[C@@H]2[C@@H](O)C[C@@]2(C)[C@H]1CC[C@]2(O)C(=O)CO [Hydrocortisone]
[1]; hydrocortisone concentration about 0.5% or more
  effectiveness: most effective concentrations
[1]; hydrocortisone concentration greater than about 0.75%
  healing speed: promote a faster healing
[1]; hydrocortisone concentration less than about 0.25%
  effectiveness: little worthwhile effect
[1]; hydrocortisone concentration less than about 0.5%
  effectiveness (healing time): generally less effective, having a lengthened healing time
